Experimental data published in US9598361B1, “Amino substituted acetamide derivative” (KING SAUD UNIVERSITY, priority 2016, dated 2017).
Read-outs that look alike come from different tables or passages of the source.

Assays:
[1] = tested on: absolute ethanol-induced ulcer; experiment: Anti-ulcerogenic activity, absolute ethanol-induced ulcer model; type: in vivo, male Wistar rats; settings: for inhibition in vivo at 100 mg/kg / inhibition in vivo at 50 mg/kg: Rattus norvegicus, po; for score: lesion score 0-5, rats; for inhibition in vivo at 50 mg/kg: read-out: % protection
Procedure: (§1) The biological activities of the investigational compounds (CP1-8) were investigated as follows. Swiss albino mice of both sexes (26-30 g) and male Wistar rats (180-200 g) were purchased from the animal house of King Saud University, KSA. Animals were housed in standard polypropylene cages with wire mesh top and maintained under standard conditions (temperature 23±1.0° C., humidity 55±10%, 12 h light/12 h dark cycle). They were fed a standard pellet diet with water ad libitum and were allowed to adapt to the laboratory environment for one week before experimentation.
Evaluation of the anti-ulcerogenic activity was carried out using absolute ethanol-induced ulcer model as described by Bighettia et al. (2005). Eighteen male Wistar rats were divided into 3 groups each of 6 rats. Group 1 received the vehicle and served as control ulcer, Group 2 received ranitidine (100 mg/kg) and served as standard, and Groups 3 received the target compound at a dose of 50 mg/kg for CP1-7 and a dose of 100 mg/kg for CP8.
Rats of all groups were fasted for 24 h then all medications were administered orally. One hour after treatment, the animals received an oral dose of absolute ethanol (1 ml/200 g) and then sacrificed one hour later, by ether inhalation, the stomachs were rapidly removed, opened along their greater curvature and gently rinsed under running tap water.
Number of lesions in the glandular part of the stomach were measured under an illuminated magnifying microscope (10×). Long lesions were counted and their lengths were measured. Petechial lesions were counted, and then each five petechial lesions were taken as 1 mm of ulcer.
The lesion scores in the mucosal lesions were quantified by the scoring system (0-5) 0=no damage, 1=Local edema and inflammation without ulcers; 2=One ulcer without inflammation; 3=one to two ulcers with inflammation & lesion diameter <1 cm; 4=More than two ulcers with lesion diameter 1-2 cm; 5=Sever ulceration with lesion diameter >2 cm (Morris et al., 1989).
In order to calculate the Ulcer Index (mm), the sum of the total length of long ulcers and petechial lesions in each group of rats was divided by its number. The curative ratio was determined according to the formula: […]

[2] = tested on: acetic acid induced colitis; experiment: Anti-ulcerative colitis activity, acetic acid induced colitis; type: in vivo, rats; settings: for % Protection of control colitis: Table 5, CP8 100 mg/kg; for inhibition in vivo at 50 mg/kg: Rattus norvegicus, po, 120 h, read-out: % Protection; for Wt/l: colon wet weight/length ratio; for effect versus dexamesathone in reducing all colitis parameters (in words): 50 mg/kg versus dexamesathone 0.1 mg/kg
Procedure: as §1
Groups of animals each of 6 rats were used for assessing the anti-ulcerative colitis activity. The first group received dexamesathone at dose 0.1 mg/kg orally to serve as standard; two other groups received water orally and served as normal control and control colitis. Other groups received the tested compounds CP 1-7 at a dose 50 mg/kg and tested compound CP 8 at a dose of 100 mg/kg. Ulcerative colitis was induced by slowly infusion of 2 mL (4%, v/v) acetic acid in saline into the colon through the catheter. Two hours after the induction of colitis, animals received the 1st dose of all medication, then all groups received medication for 5 consecutive days, two hours after the last dose, animals were sacrificed by ether anesthesia, colonic segments (8 cm in length and 3 cm proximal to the anus) were excised, opened and were used for macroscopic scoring (Awaad et al., 2013).
The colonic lesions were assessed as follows. The colon specimens were weighted and wet weight/length ratio was calculated for all the rats. The specimens were examined under a dissecting microscope and the mucosal lesions were quantified by the scoring system (0-5) given by Awaad et al., (2013) after some modifications. The lesion scores were determined as follows: 0=no damage, 1=Local edema and inflammation without ulcers; 2=One ulcer without inflammation; 3=one to two ulcers with inflammation & lesion diameter <1 cm; 4=More than two ulcers with lesion diameter 1-2 cm; 5=Sever ulceration with lesion diameter >2 cm.
The ulcer area was measured using plane glass square. Each cell on the glass square was 1 mm^2 in area and the number of cells was counted and the ulcer area was determined for each colon. The ulcer index was measured by summing the lesion score and the ulcer area for each colon specimen (Awaad et al, 2013).

[3] = tested on: liver and kidney functions; experiment: Effect on liver and kidney functions; type: in vivo, Male Wister rats
Procedure: The effect on liver and kidney functions using the derivatives were investigated as follows. Male Wister rats were divided into 2 groups, each of 10 rats. The 1st group was left as a control and administered the vehicle orally, while the other group was orally administered the synthesized compounds in a dose of 50 mg/kg (for CP 1-7) or a dose of about 100 mg/kg (for CP 8). After the examination period, 6 h after the last dose blood samples were collected from the orbital plexus of rats. Samples were left to clot at room temperature for 30 min then centrifuged at 1000 rpm for 20 min.
The collected sera were used for determination of the activity of both (AST) aspirate aminotransferase and (ALT) alanine aminotransferase as liver markers. In addition, levels of blood urea, serum creatinine were also estimated as kidney markers (Awaad et al., 2013).

[4] = Table 3, protection of control ulcer, oral 100 mg/kg
[5] = Table 7, rat serum, oral 100 mg/kg, mean ± SD, n = 10
[6] = Table 7, rats, oral 100 mg/kg, mean ± SD, n = 10
[7] = rats, oral 50 mg/kg (CP 1-7) or 100 mg/kg (CP 8)
[8] = Table 2, oral, CP-1-7 50 mg/kg, ranitidine 100 mg/kg
[9] = Table 4, oral 5 days, CP-1-7 50 mg/kg, dexamethasone 0.1 mg/kg
[10] = Table 6, rat serum, oral 50 mg/kg, 6 h after last dose, mean ± SD, n = 10
[11] = Table 6, rats, oral 50 mg/kg, 6 h after last dose, mean ± SD, n = 10
[12] = Table 2, protection of control ulcer, oral, CP-1-7 50 mg/kg, ranitidine 100 mg/kg
[13] = Table 4, protection of control colitis, CP-1-7 50 mg/kg, dexamethasone 0.1 mg/kg

Structure (SMILES)	score [1, 8]	Wt/l [2, 9]	ALT [3, 10]	AST [3, 10]	Serum Creatinine [3, 11]	melting point	inhibition in vivo at 50 mg/kg [1, 12]	inhibition in vivo at 50 mg/kg [2, 13]	Blood Urea [3, 11]	other results
NS(=O)(=O)c1ccc(NC(=O)CNc2ccccc2C(=O)O)cc1 [CP8, 2-(2-Hydroxycarbonylphenylamino)-N-(4-aminosulphonylphenyl)acetamide]	–	–	–	–	–	–	–	–	–	effect versus ranitidine in reducing ulcer index and ulcer score (in words) ([1]; CP8 100 mg/kg versus ranitidine 100 mg/kg): significantly more effective than the standard; inhibition in vivo at 100 mg/kg [1, 4]: 87.1%; score ([1]; Table 3, oral 100 mg/kg): 1.20; % Protection of control colitis ([2]; dexamethasone 0.1 mg/kg): 64.2%; ALT [3, 5]: 39.70 ± 0.22 U/l; AST [3, 5]: 66.28 ± 0.40 U/l; Blood Urea [3, 6]: 68.60 ± 1.9 mg/dL; Creatinine [3, 6]: 0.86 ± 0.03 mg/dL; liver functions (activity of AST and ALT), hepatotoxic manifestation (in words) [3, 7]: didn't reveal hepatotoxic manifestation; nephrotoxic manifestations (in words) [3, 7]: no apparent nephrotoxic manifestations; liver and kidney functions versus control (in words) ([3]; rats, oral 100 mg/kg, 0.05 level of probability): not affected
N#CC1(c2ccccc2)CCN(CC(=O)Nc2ccc(S(N)(=O)=O)cc2)CC1 [CP-1, 2-[(4-Cyano-4-phenyl)piperidinyl]-N-(4-aminosulphonylphenyl)acetamide]	3.20	0.79 ± 0.08	35.77 ± 1.60 U/l	44.43 ± 1.57 U/l	0.88 ± 0.03 mg/dL	196 to 198 °C	–	–	–	inhibition in vivo at 50 mg/kg [1]: 55.5%; inhibition in vivo at 50 mg/kg [2]: 31.7%; effect on blood urea concentration (in words) ([3]; rats, oral 50 mg/kg): slightly elevate
NS(=O)(=O)c1ccc(NC(=O)CN2CCC(O)(c3ccccc3)CC2)cc1 [CP-2, 2-[(4-Hydroxy-4-phenyl)piperidinyl]-N-(4-aminosulphonylphenyl)acetamide]	3.20	0.74 ± 0.02	–	–	–	221 to 223 °C	71.9%	49.1%	–	ALT ([3]; rat, in vivo, po, 50 mg/kg): 39.70 ± 0.22 U/l; AST ([3]; rat, in vivo, po, 50 mg/kg): 66.28 ± 0.40 U/l; Blood Urea ([3]; rat, in vivo, po, 50 mg/kg): 52.55 ± 1.24 mg/dL; Serum Creatinine ([3]; rat, in vivo, po, 50 mg/kg): 0.86 ± 0.03 mg/dL
NS(=O)(=O)c1ccc(NC(=O)CN2CCC(c3ccc(Cl)cc3)CC2)cc1 [CP-3, 2-[4(4-Chlorophenyl)piperidinyl]-N-(4-aminosulphonylphenyl)acetamide]	2.20	0.64 ± 0.05	36.87 ± 1.28 U/l	44.16 ± 1.57 U/l	–	270 to 272 °C	90.3%	64.2%	46.02 ± 1.10 mg/dL	effect versus dexamesathone in reducing all colitis parameters (in words) [2]: significantly more effective than dexamesathone; effect on serum creatinine (in words) ([3]; rats, oral 50 mg/kg): slightly elevated
NS(=O)(=O)c1ccc(NC(=O)CN2CCC(N3CCCCC3)CC2)cc1 [CP-4, 2-[4-(1-Piperidino)piperidinyl]-N-(4-aminosulphonylphenyl)acetamide]	2.00	0.84 ± 0.02	36.87 ± 1.28 U/l	44.16 ± 1.57 U/l	–	215 to 217 °C	97.7%	25.3%	47.96 ± 0.84 mg/dL	score ([2]; Table 4, lesion score 0-5, oral 5 days, CP-1-7 50 mg/kg, dexamethasone 0.1 mg/kg): 3.00 ± 0.63; effect on serum creatinine (in words) ([3]; rats, oral 50 mg/kg): slightly elevated
COc1ccc(C2CCN(CC(=O)Nc3ccc(S(N)(=O)=O)cc3)CC2)cc1 [CP-5, 2-[4(4-Methoxyphenyl)piperidinyl]-N-(4-aminosulphonylphenyl)acetamide]	2.40	0.75 ± 0.02	36.35 ± 1.26 U/l	44.09 ± 1.25 U/l	0.86 ± 0.07 mg/dL	175 to 177 °C	83.6%	22.3%	55.92 ± 0.55 mg/dL	–
Cc1cccc(N2CCN(CC(=O)Nc3ccc(S(N)(=O)=O)cc3)CC2)c1C [CP-6, 2-[4(2,3-Xylyl)piperazinyl]-N-(4-aminosulphonylphenyl)acetamide]	3.00	0.71 ± 0.05	36.02 ± 1.58 U/l	44.7 ± 1.66 U/l	0.83 ± 0.08 mg/dL	241 to 243 °C	88.5%	30.6%	51.00 ± 0.89 mg/dL	–
Cc1cc(NCC(=O)Nc2ccc(S(N)(=O)=O)cc2)c2ccccc2n1 [CP-7, 2-(2-Methylquinolin-4-ylamino)-N-(4-aminosulphonylphenyl)acetamide]	3.60	0.49 ± 0.02	36.33 ± 1.35 U/l	46.16 ± 1.48 U/l	0.85 ± 0.09 mg/dL	> 300 °C	64.1%	66.8%	53.00 ± 0.14 mg/dL	effect versus dexamesathone in reducing all colitis parameters (in words) [2]: significantly more effective than dexamesathone
C[C@@H]1C[C@H]2[C@@H]3CCC4=CC(=O)C=C[C@]4(C)[C@@]3(F)[C@@H](O)C[C@]2(C)[C@@]1(O)C(=O)CO [Dexamethasone, reference compound]	–	0.52 ± 0.07	–	–	–	–	–	59.3%	–	% Protection of control colitis ([2]; dexamethasone 0.1 mg/kg): 60%
CNC(=C[N+](=O)[O-])NCCSCc1ccc(CN(C)C)o1 [Ranitidine, ranitidine, reference compound]	2.20	–	–	–	–	–	49.2%	–	–	inhibition in vivo at 100 mg/kg [1, 4]: 58.8%; score ([1]; Table 3, oral 100 mg/kg): 2.20
